Test results: patent US11008323B2, “Substituted tricyclic 1,4-benzodiazepinone derivatives as allosteric modulators of group II metabotropic glutamate receptors” (Domain Therapeutics, priority 2015, dated 2021)

How the values were obtained:
human mGluR3 (hmGluR3) = molecular target: T1, human mGluR3 (hmGluR3) (Homo sapiens, UniProt Q14832); experiment: Human mGluR3 positive allosteric modulator evaluation using Ca++ functional assay; assay type: cell-based; details: hmGluR3 transiently over-expressed in HEK-293 cells; stimulated by EC50 glutamate concentration; intracellular Ca2+ (Fluo4AM, FLIPR Tetra)
T1 construct: expressed in transfected cells; host or cells: HEK-293 cells, transient co-transfection by electroporation
T1 sequence (Q14832 23-879): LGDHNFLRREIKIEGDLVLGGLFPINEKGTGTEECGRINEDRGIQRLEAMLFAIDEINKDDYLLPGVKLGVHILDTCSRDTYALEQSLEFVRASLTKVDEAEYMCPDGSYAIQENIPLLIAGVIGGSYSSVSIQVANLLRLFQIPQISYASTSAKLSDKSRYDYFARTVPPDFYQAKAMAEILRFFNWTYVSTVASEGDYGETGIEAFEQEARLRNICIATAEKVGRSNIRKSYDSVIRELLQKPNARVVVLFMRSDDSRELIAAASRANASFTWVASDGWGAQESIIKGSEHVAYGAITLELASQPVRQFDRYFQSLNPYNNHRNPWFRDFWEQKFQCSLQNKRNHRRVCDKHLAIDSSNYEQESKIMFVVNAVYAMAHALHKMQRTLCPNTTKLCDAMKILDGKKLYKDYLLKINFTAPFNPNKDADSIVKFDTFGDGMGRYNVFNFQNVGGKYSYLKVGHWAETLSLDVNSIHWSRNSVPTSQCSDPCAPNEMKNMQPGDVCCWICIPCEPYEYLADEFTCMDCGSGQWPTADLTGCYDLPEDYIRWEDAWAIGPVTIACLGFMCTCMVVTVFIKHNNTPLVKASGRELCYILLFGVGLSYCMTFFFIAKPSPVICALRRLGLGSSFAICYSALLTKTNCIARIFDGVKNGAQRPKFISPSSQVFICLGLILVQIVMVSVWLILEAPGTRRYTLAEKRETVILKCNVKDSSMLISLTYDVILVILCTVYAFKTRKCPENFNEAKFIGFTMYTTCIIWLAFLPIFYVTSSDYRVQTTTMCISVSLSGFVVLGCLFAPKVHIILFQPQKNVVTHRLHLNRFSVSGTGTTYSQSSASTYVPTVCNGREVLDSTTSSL
Summary of the method: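 Calcium flux (Fluo4, ex 485/em 525 nm) recorded first 10 min with compound alone, then 3 min after an EC50 glutamate challenge, giving agonist and PAM EC50 from 20-concentration sigmoidal fits. Receptor was transiently co-transfected in HEK-293 with chimeric G protein and glutamate transporters.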

Row | SMILES | melting point | EC50 (human mGluR3 (hmGluR3))
1 | CN1C(=O)c2ccc(-c3ccnn3C)n2-c2cc(-c3ccc(F)cn3)ccc2C12CC2 [Example 86, 5-Methyl-1-(2-methyl-2H-pyrazol-3-yl)9-(5-fluoropyridin-2-yl)-spiro[benzo[f]pyrrolo[1,2-a][1,4]diazepine-6,1′-cyclopropan]-4(5H)-one] | 143 to 166 °C | > 1000 nM
2 | Cc1ccc(-c2ccc3c(c2)-n2cc(CO)cc2C(=O)N(C)C32CC2)cn1 [Example 202] | 144 to 154 °C | < 100 nM
3 | [2H]C([2H])([2H])N1C(=O)c2cc(-c3nnco3)cn2-c2cc(-c3ccc(F)nc3)ccc2C12CC2 [Example 188] | > 250 °C | < 100 nM
4 | CN1C(=O)c2cc(-c3ccccc3)cn2-c2cc(-c3cccc(C(=O)O)c3)ccc2C12CC2 [Example 94, 3-(5-methyl-4-oxo-2-phenyl-4,5-dihydrospiro[benzo[f]pyrrolo[1,2-a][1,4]diazepine-6,1′-cyclopropan]-9-yl)benzoic acid] | > 250 °C | < 100 nM
5 | CN1C(=O)c2cc(-c3ccccc3)nn2-c2cc(-c3cn[nH]c3)ccc2C12CC2 [Example 134, 9-(1H-pyrazol-4-yl)-5-methyl-2-phenyl-spiro[benzo[f]pyrazolo[1,5-a][1,4]diazepine-6,1′-cyclopropan]-4(5H)-one] | 199 to 208 °C | 100 to 1000 nM
6 | COCN1C(=O)c2cccn2-c2cc(-c3cccnc3C)ccc2C12CC2 [Example 21, 5-Methoxymethyl-9-(2-methyl-pyridin-3-yl)-spiro[benzo[f]pyrrolo[1,2-a][1,4]diazepine-6,1′-cyclopropan]-4(5H)-one] | 138 to 142 °C | > 1000 nM
7 | CN1C(=O)c2cccn2-c2cc(-c3cccc(-c4nnn[nH]4)c3)ccc2C12CC2 [Example 45, 5-Methyl-9-(3-(1H-tetrazol-5-yl)-phenyl)-spiro[benzo[f]pyrrolo[1,2-a][1,4]diazepine-6,1′-cyclopropan]-4(5H)-one] | > 250 °C | 100 to 1000 nM
8 | CN1C(=O)c2cccn2-c2cc(-c3cccnc3F)ccc2C12CC2 [Example 33, 5-Methyl-9-(2-fluoropyridin-3-yl)-spiro[benzo[f]pyrrolo[1,2-a][1,4]diazepine-6,1′-cyclopropan]-4(5H)-one] | 158 to 162 °C | 100 to 1000 nM
9 | CN1C(=O)c2cc(-c3nnco3)cn2-c2cc(-c3cccc(C#N)c3)ccc2C12CC2 [Example 192] | > 250 °C | < 100 nM
10 | CN1C(=O)c2cccn2-c2cc(-c3ccnn3C)ccc2C12CC2 [Example 30, 5-Methyl-9-(1-methyl-pyrazol-5-yl)-spiro[benzo[f]pyrrolo[1,2-a][1,4]diazepine-6,1′-cyclopropan]-4(5H)-one] | 214 to 220 °C | 100 to 1000 nM
11 | CN1C(=O)c2cc(-c3ccccc3)cn2-c2cc(-c3ccc(C#N)nc3)ccc2C12CC2 [Example 117, 5-Methyl-2-phenyl-9-(6-cyano-pyridin-3-yl)-spiro[benzo[f]pyrrolo[1,2-a][1,4]diazepine-6,1′-cyclopropan]-4(5H)-one] | 200 to 204 °C | 100 to 1000 nM
12 | CN1C(=O)c2cc(-c3ccccc3)cn2-c2cc(-c3cccnc3F)ccc2C12CC2 [Example 113, 5-Methyl-2-phenyl-9-(2-fluoro-pyridin-3-yl)-spiro[benzo[f]pyrrolo[1,2-a][1,4]diazepine-6,1′-cyclopropan]-4(5H)-one] | 143 to 149 °C | 100 to 1000 nM
13 | Cc1ncccc1-c1ccc2c(c1)-n1cc(-c3nnco3)cc1C(=O)N(C)C21CC1 [Example 185] | > 250 °C | < 100 nM
14 | CN1C(=O)c2cccn2-c2cc(-c3ccc(F)nc3)cc(F)c2C12CC2 [Example 74, 7-Fluoro-5-methyl-9-(6-fluoro-pyridin-3-yl)-spiro[benzo[f]pyrrolo[1,2-a][1,4]diazepine-6,1′-cyclopropan]-4(5H)-one] | 220 to 225 °C | < 100 nM
15 | CN1C(=O)c2cc(-c3ccccc3)nn2-c2ccccc2C12CC2 [Example 138, 5-Methyl-2-phenyl-spiro[benzo[f]pyrazolo[1,5-a][1,4]diazepine-6,1′-cyclopropan]-4(5H)-one] | 212 to 218 °C | > 1000 nM
16 | CN1C(=O)c2cccn2-c2cc(-c3cccc(F)n3)ccc2C12CC2 [Example 67, 5-Methyl-9-(6-fluoropyridin-2-yl)-spiro[benzo[f]pyrrolo[1,2-a][1,4]diazepine-6,1′-cyclopropan]-4(5H)-one] | 106 to 117 °C | 100 to 1000 nM

Row | SMILES | melting point | EC50 (human mGluR3 (hmGluR3))
17 | Cc1ncccc1-c1ccc2c(c1)-n1cccc1C(=O)N(C)C21CC1 [Example 20, 5-Methyl-9-(2-methyl-pyridin-3-yl)-spiro[benzo[f]pyrrolo[1,2-a][1,4]diazepine-6,1′-cyclopropan]-4(5H)-one] | 200 to 210 °C | 100 to 1000 nM
18 | CN1C(=O)c2cc(-c3ccccc3)cn2-c2cc(-c3cccnc3C(F)(F)F)ccc2C12CC2 [Example 100, 5-Methyl-2-phenyl-9-(2-trifluoromethyl-pyridin-3-yl)-spiro[benzo[f]pyrrolo[1,2-a][1,4]diazepine-6,1′-cyclopropan]-4(5H)-one] | 199 to 204 °C | > 1000 nM
19 | CN1C(=O)c2cc(-c3ccccc3)nn2-c2cc(-c3cccc(C(=O)O)c3)ccc2C12CC2 [Example 133, 3-(5-methyl-4-oxo-2-phenyl-4,5-dihydrospiro[benzo[f]pyrazolo[1,5-a][1,4]diazepine-6,1′-cyclopropan]-9-yl)benzoic acid] | 211 to 217 °C | < 100 nM
20 | CN1C(=O)c2cccn2-c2cc(-c3cc[nH]c(=O)c3)ccc2C12CC2 [Example 68, 5-Methyl-9-(2-hydroxypyridin-4-yl)-spiro[benzo[f]pyrrolo[1,2-a][1,4]diazepine-6,1′-cyclopropan]-4(5H)-one] | 183 to 197 °C | > 1000 nM
21 | CN1C(=O)c2cc(-c3ccccc3)cn2-c2cc(-c3cccc(S(=O)(=O)N(C)C)c3)ccc2C12CC2 [Example 141, N,N-dimethyl-3-(5-methyl-4-oxo-2-phenyl-4,5-dihydrospiro[benzo[f]pyrrolo[1,2-a][1,4]diazepine-6,1′-cyclopropan]-9-yl)benzenesulfonamide] | 198 to 205 °C | 100 to 1000 nM
22 | [2H]C([2H])([2H])N1C(=O)c2cccn2-c2cc(-c3ccc(F)nc3)ccc2C12CC2 [Example 55, 5-(Methyl-d3)-9-(6-fluoropyridin-3-yl)-spiro[benzo[f]pyrrolo[1,2-a][1,4]diazepine-6,1′-cyclopropan]-4(5H)-one] | 166 to 178 °C | < 100 nM
23 | Cc1ccc2c(c1)C1(CC1)N(C)C(=O)c1cccn1-2 [Example 87, 5,8-Dimethyl-spiro[benzo[f]pyrrolo[1,2-a][1,4]diazepine-6,1′-cyclopropan]-4(5H)-one] | 143 to 150 °C | > 1000 nM
24 | CN1C(=O)c2cccn2-c2cc(-c3cnn(C)c3)ccc2C12CC2 [Example 29, 5-Methyl-9-(1-methyl-pyrazol-4-yl)-spiro[benzo[f]pyrrolo[1,2-a][1,4]diazepine-6,1′-cyclopropan]-4(5H)-one] | 75 to 83 °C | 100 to 1000 nM
25 | CN1C(=O)c2cccn2-c2cc(-c3cccnc3C(C)(C)O)ccc2C12CC2 [Example 72, 5-Methyl-9-(2-(1-hydroxy-1-methyl-ethyl)-pyridin-3-yl)-spiro[benzo[f]pyrrolo[1,2-a][1,4]diazepine-6,1′-cyclopropan]-4(5H)-one] | 220 to 228 °C | > 1000 nM
26 | CN1C(=O)c2cc(-c3nnco3)cn2-c2cc(-c3cccnn3)ccc2C12CC2 [Example 193] | > 250 °C | 100 to 1000 nM
27 | CN1C(=O)c2cccn2-c2cc(-c3cccc(C#N)c3)ccc2C12CC2 [Example 44, 5-Methyl-9-(3-cyanophenyl)-spiro[benzo[f]pyrrolo[1,2-a][1,4]diazepine-6,1′-cyclopropan]-4(5H)-one] | 189 to 194 °C | < 100 nM
28 | CN1C(=O)c2cccn2-c2cc(CCC#N)ccc2C12CC2 [Example 53, 5-Methyl-9-propionitrile-spiro[benzo[f]pyrrolo[1,2-a][1,4]diazepine-6,1′-cyclopropan]-4(5H)-one] | 59 to 64 °C | > 1000 nM
29 | CN1C(=O)c2cccn2-c2cc(-c3ccc(C(F)(F)F)nc3)ccc2C12CC2 [Example 60, 5-Methyl-9-(6-trifluoromethylpyridin-3-yl)-spiro[benzo[f]pyrrolo[1,2-a][1,4]diazepine-6,1′-cyclopropan]-4(5H)-one] | 88 to 97 °C | 100 to 1000 nM
30 | CN1C(=O)c2cc(-c3ccccc3)nn2-c2cc(-c3ccccc3)ccc2C12CC2 [Example 123, 2,9-Diphenyl-5-methyl-2-spiro[benzo[f]pyrazolo[1,5-a][1,4]diazepine-6,1′-cyclopropan]-4(5H)-one] | 133 to 140 °C | > 1000 nM
31 | CN1C(=O)c2cc(-c3ccccc3)nn2-c2cc(-c3ccc(N)cc3)ccc2C12CC2 [Example 124, 9-(4-Amino-phenyl)-5-methyl-2-phenyl-spiro[benzo[f]pyrazolo[1,5-a][1,4]diazepine-6,1′-cyclopropan]-4(5H)-one] | 195 to 209 °C | > 1000 nM
32 | CN1C(=O)c2cc(-c3ccccc3)cn2-c2cc(-c3ccc(F)cn3)ccc2C12CC2 [Example 110, 5-Methyl-2-phenyl-9-(5-fluoro-pyridin-2-yl)-spiro[benzo[f]pyrrolo[1,2-a][1,4]diazepine-6,1′-cyclopropan]-4(5H)-one] | 140 to 151 °C | < 100 nM
